Measurements taken from patent US20240018136A1, “CDK Inhibitors And Their Use As Pharmaceuticals” (Prelude Therapeutics, Incorporated, priority 2022, published 2024).

Columns and labels:
CDK2/Cyclin E2 = CDK2/Cyclin E2 (Homo sapiens, UniProt P24941); assay: CDK2/CyclinE2 enzymatic activity assay (TR-FRET); type: biochemical; details: ATP 1 mM final, read-out: CDK2_E1 IC50
In short: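 Insect-cell-expressed CDK2/Cyclin E2 (1 nM), ULight-4E-BP1 (50 nM) and ATP (1 mM) in HEPES pH 7.4 buffer were preincubated 20 min at RT with compound (9-dose, 3-fold), started with 10 mM MgCl2 and run 45 min at 37 °C. EDTA/Eu-anti-P-4E-BP1 stop, 60 min TR-FRET detection; IC50 from 4-parameter Hill fit.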

CDK4/Cyclin D1 = target: T1, CDK4/Cyclin D1 (Homo sapiens, UniProt P11802); assay: CDK4/CyclinD1 enzymatic activity assay (TR-FRET); type: biochemical; details: ATP 2 mM final, read-out: CDK4_D1 IC50
T1 construct: purchased ProQinase; host or cells: insect cell
In short: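 Insect-cell-expressed CDK4/Cyclin D1 (1 nM) phosphorylated ULight-4E-BP1 peptide (100 nM) at 2 mM ATP in HEPES pH 7.4 buffer after 20 min compound preincubation. Reaction started with 10 mM MgCl2, ran 45 min at 37 °C, then EDTA quench and Eu-anti-phospho-4E-BP1 TR-FRET detection. IC50 from 9-point 3-fold dilutions, 4-parameter fit.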

OVCAR3 p-RB = assay: pRB ICW assay in OVCAR3 cells; type: cell-based; details: Homo sapiens, OVCAR-3, incubated with compound for 2 hours
In short: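 OVCAR3 cells were treated 2 h at 37 °C with a 9-point half-log compound series, in duplicate, with 10 μM reference compound as maximum inhibition. Cells were then fixed, permeabilized and stained with anti-phospho-RB plus DRAQ5. In-cell western intensities were read at 700/800 nm on Odyssey CLx.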

T1 sequence (P11802 whole entry): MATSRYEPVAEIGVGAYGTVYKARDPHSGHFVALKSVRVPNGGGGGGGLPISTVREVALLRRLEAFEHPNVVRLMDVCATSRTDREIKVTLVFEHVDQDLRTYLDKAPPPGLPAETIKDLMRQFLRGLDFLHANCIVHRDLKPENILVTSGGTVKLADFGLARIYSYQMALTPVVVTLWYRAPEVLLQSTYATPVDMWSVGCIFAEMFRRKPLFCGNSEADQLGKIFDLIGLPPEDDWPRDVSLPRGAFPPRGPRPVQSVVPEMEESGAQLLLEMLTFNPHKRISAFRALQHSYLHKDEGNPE
T1 sequence (P24385 whole entry partner): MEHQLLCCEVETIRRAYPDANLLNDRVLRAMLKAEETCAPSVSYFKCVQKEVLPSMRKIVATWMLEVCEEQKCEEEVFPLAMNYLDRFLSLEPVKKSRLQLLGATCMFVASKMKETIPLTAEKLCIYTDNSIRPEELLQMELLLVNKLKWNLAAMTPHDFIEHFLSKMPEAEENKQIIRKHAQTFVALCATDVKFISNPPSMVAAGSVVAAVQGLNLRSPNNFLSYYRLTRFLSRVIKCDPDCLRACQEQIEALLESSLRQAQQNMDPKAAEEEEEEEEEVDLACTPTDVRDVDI

Structure (SMILES)	IC50 (CDK2/Cyclin E2) [nM]	IC50 (CDK4/Cyclin D1) [nM]	IC50 (OVCAR3 p-RB) [nM]
Cc1ncc(-c2nc(NC3CCN(S(C)(=O)=O)CC3)ncc2C(F)(F)F)s1 [Example 19, N-(1-methylsulfonylpiperidin-4-yl)-4-(2-methyl-1,3-thiazol-5-yl)-5-(trifluoromethyl)pyrimidin-2-amine]	≤ 100	≤ 100	100 to 1000
Cc1ncc(-c2nc(NC3CCN(S(=O)(=O)CCO)CC3)ncc2C(F)(F)F)s1 [Example 61, 2-[4-[[4-(2-methyl-1,3-thiazol-5-yl)-5-(trifluoromethyl)pyrimidin-2-yl]amino]piperidin-1-yl]sulfonylethanol]	≤ 100	≤ 100	100 to 1000
CN(C)c1ncc(-c2nc(NC3CCN(S(C)(=O)=O)CC3)ncc2C(F)F)s1 [Example 62, 5-[5-(Difluoromethyl)-2-[(1-methylsulfonylpiperidin-4-yl)amino]pyrimidin-4-yl]-N,N-dimethyl-1,3-thiazol-2-amine]	100 to 1000	100 to 1000	> 1000
CS(=O)(=O)N1CCC(Nc2ncc(C(F)(F)F)c(-c3cnc(Cl)s3)n2)CC1 [Example 26, 4-(2-chlorothiazol-5-yl)-N-(1-(methylsulfonyl)piperidin-4-yl)-5-(trifluoromethyl) pyrimidin-2-amine]	≤ 100	100 to 1000	100 to 1000
Cc1ncc(-c2nc(NC3CCN(S(=O)(=O)c4cnn(C)c4)CC3)ncc2C(F)(F)F)s1 [Example 60, N-[1-(1-Methylpyrazol-4-yl)sulfonylpiperidin-4-yl]-4-(2-methyl-1,3-thiazol-5-yl)-5-(trifluoromethyl)pyrimidin-2-amine]	≤ 100	≤ 100	100 to 1000
CC(=O)N1CCC(S(=O)(=O)N2CCC(Nc3ncc(C(F)(F)F)c(-c4cnc(C(C)O)s4)n3)CC2)CC1 (stereo not drawn) [Example 88, 1-(4-((4-((4-(2-(1-hydroxyethyl)thiazol-5-yl)-5-(trifluoromethyl)pyrimidin-2-yl)amino)piperidin-1-yl)sulfonyl)piperidin-1-yl)ethan-1-one]	≤ 100	≤ 100	100 to 1000
Cn1cnc(S(=O)(=O)N2CCC(Nc3ncc(C(F)(F)F)c(-c4cnc(C(O)C(C)(C)O)s4)n3)CC2)c1 (stereo not drawn) [Example 75, 2-methyl-1-(5-(2-((1-((1-methyl-1H-imidazol-4-yl)sulfonyl)piperidin-4-yl)amino)-5-(trifluoromethyl)pyrimidin-4-yl)thiazol-2-yl)propane-1,2-diol]	≤ 100	≤ 100	100 to 1000
CC(O)c1ncc(-c2nc(N[C@H]3CCN(S(=O)(=O)c4cnn(C)c4)C[C@H]3F)ncc2C(F)(F)F)s1 (stereo partly drawn) [Example 98, 1-(5-(2-(((3R,4S)-3-fluoro-1-((1-methyl-1H-pyrazol-4-yl)sulfonyl)piperidin-4-yl)amino)-5-(trifluoromethyl)pyrimidin-4-yl)thiazol-2-yl)ethan-1-ol]	≤ 100	≤ 100	≤ 100
CC(C)Oc1ncc(-c2nc(NC3CCN(S(C)(=O)=O)CC3)ncc2C(F)(F)F)s1 [Example 25, N-(1-Methylsulfonylpiperidin-4-yl)-4-(2-propan-2-yloxy-1,3-thiazol-5-yl)-5-(trifluoromethyl)pyrimidin-2-amine]	≤ 100	≤ 100	100 to 1000
COC(=O)Nc1ncc(-c2nc(NC3CCN(S(C)(=O)=O)CC3)ncc2C(F)(F)F)s1 [Example 54, Methyl N-[5-[2-[(1-methylsulfonylpiperidin-4-yl)amino]-5-(trifluoromethyl)pyrimidin-4-yl]-1,3-thiazol-2-yl]carbamate]	≤ 100	100 to 1000	> 1000
COCc1nn(C)cc1S(=O)(=O)N1CCC(Nc2ncc(C(F)(F)F)c(-c3cnc(C(C)O)s3)n2)CC1 (stereo not drawn) [Example 86, 1-(5-(2-((1-((3-(methoxymethyl)-1-methyl-1H-pyrazol-4-yl)sulfonyl)piperidin-4-yl)amino)-5-(trifluoromethyl)pyrimidin-4-yl)thiazol-2-yl)ethan-1-ol]	≤ 100	≤ 100	≤ 100
Cc1ncc(-c2nc(NC3CCN(S(=O)(=O)c4cn(C)cn4)CC3)ncc2C(F)(F)F)s1 [Example 58, N-[1-(1-Methylimidazol-4-yl)sulfonylpiperidin-4-yl]-4-(2-methyl-1,3-thiazol-5-yl)-5-(trifluoromethyl)pyrimidin-2-amine]	≤ 100	≤ 100	100 to 1000

Continued, values first:

IC50 (CDK2/Cyclin E2) [nM]	IC50 (CDK4/Cyclin D1) [nM]	IC50 (OVCAR3 p-RB) [nM]	Structure (SMILES)
≤ 100	≤ 100	100 to 1000	CNCc1ccc(-c2ncc(-c3nc(NC4CCN(S(C)(=O)=O)CC4)ncc3C(F)(F)F)s2)c(C)c1 [Example 13, 4-[2-[2-Methyl-4-(methylaminomethyl)phenyl]-1,3-thiazol-5-yl]-N-(1-methylsulfonylpiperidin-4-yl)-5-(trifluoromethyl)pyrimidin-2-amine]
≤ 100	≤ 100	100 to 1000	CN(C)c1ncc(-c2nc(NC3CCN(S(C)(=O)=O)CC3)ncc2C(F)(F)F)s1 [Example 29, N,N-dimethyl-5-[2-[(1-methylsulfonylpiperidin-4-yl)amino]-5-(trifluoromethyl)pyrimidin-4-yl]-1,3-thiazol-2-amine]
≤ 100	100 to 1000	100 to 1000	C[C@@H]1CN(S(=O)(=O)c2cn(C)cn2)CC[C@@H]1Nc1ncc(C(F)(F)F)c(-c2cnc(CC(C)(C)O)s2)n1 [Example 72, 2-methyl-1-(5-(2-(((3R,4S)-3-methyl-1-((1-methyl-1H-imidazol-4-yl)sulfonyl)piperidin-4-yl)amino)-5-(trifluoromethyl)pyrimidin-4-yl)thiazol-2-yl)propan-2-ol]
≤ 100	≤ 100	100 to 1000	C[C@@]1(O)CCC[C@H]1Nc1ncc(-c2nc(NC3CCN(S(C)(=O)=O)CC3)ncc2C(F)(F)F)s1 [Example 37, (1R,2R)-1-Methyl-2-[[5-[2-[(1-methylsulfonylpiperidin-4-yl)amino]-5-(trifluoromethyl)pyrimidin-4-yl]-1,3-thiazol-2-yl]amino]cyclopentan-1-ol]
≤ 100	≤ 100	100 to 1000	CS(=O)(=O)N1CCC(Nc2ncc(C(F)(F)F)c(-c3cnc(NCCO)s3)n2)CC1 [Example 31, 2-[[5-[2-[(1-methylsulfonylpiperidin-4-yl)amino]-5-(trifluoromethyl)pyrimidin-4-yl]-1,3-thiazol-2-yl]amino]ethanol]
≤ 100	≤ 100	100 to 1000	CS(=O)(=O)N1CCC(Nc2ncc(C(F)(F)F)c(-c3cnc(-c4ccc(CO)cc4Cl)s3)n2)CC1 [Example 9, [3-Chloro-4-[5-[2-[(1-methylsulfonylpiperidin-4-yl)amino]-5-(trifluoromethyl)pyrimidin-4-yl]-1,3-thiazol-2-yl]phenyl]methanol]
≤ 100	≤ 100	100 to 1000	CC(O)c1ncc(-c2nc(NC3CCN(S(=O)(=O)c4cnn(CC(N)=O)c4)CC3)ncc2C(F)(F)F)s1 (stereo not drawn) [Example 87, 2-(4-((4-((4-(2-(1-hydroxyethyl)thiazol-5-yl)-5-(trifluoromethyl)pyrimidin-2-yl)amino)piperidin-1-yl)sulfonyl)-1H-pyrazol-1-yl)acetamide]
≤ 100	100 to 1000	> 1000	CN(C)Cc1ncc(-c2nc(NC3CCN(S(C)(=O)=O)CC3)ncc2C(F)(F)F)s1 [Example 65, 4-[2-[(Dimethylamino)methyl]-1,3-thiazol-5-yl]-N-(1-methylsulfonylpiperidin-4-yl)-5-(trifluoromethyl)pyrimidin-2-amine]
